Laboratory results reported in PMC9284491 (Nature Communications, 2022).
“Also recorded” adds a separate entry of the source.

Experiment: Treatment-emergent adverse events (MedDRA, NCI-CTCAE v4.03), safety populations
Assay type: in vivo, human
Description: Overall safety in Parts A and B was assessed by tabulating TEAEs, coded using the Medical Dictionary for Regulatory Activities (MedDRA) version 22.1, and graded according to NCI-CTCAE v4.03 criteria. TEAEs were classified as related or unrelated to amcenestrant therapy based upon the local investigating physician’s clinical judgment. The safety population included all patients exposed to at least one dose of the study treatment. Results were analyzed using descriptive statistics.

In the case of O=C(O)c1ccc2c(c1)CCCC(c1ccc(Cl)cc1Cl)=C2c1ccc(O[C@H]2CCN(CCCF)C2)cc1 [amcenestrant, 6-(2,4-Dichlorophenyl)−5-[4-[(3S)−1-(3-fluoropropyl)pyrrolidin-3-yl]oxyphenyl]−8,9-dihydro-7H-benzo[7]annulene-2-carboxylic acid], the “Hypoesthesia, TEAEs, Grade 2” value (Part A, 20-600 mg QD (N = 16)) is reported as 0 n (%), the “Hypoesthesia, TEAEs, Grade ≥3” value (Part A, 20-600 mg QD (N = 16)) is reported as 0 n (%) and the “Hypoesthesia, Treatment-related TEAEs, All Grades” value (Part A, 20-600 mg QD (N = 16)) is reported as 0 n (%). For the same compound, the “Hypoesthesia, Treatment-related TEAEs, Grade 1” value (Part A, 20-600 mg QD (N = 16)) was 0 n (%), the “Hypoesthesia, Treatment-related TEAEs, Grade 2” value (Part A, 20-600 mg QD (N = 16)) was 0 n (%) and the “Hypoesthesia, Treatment-related TEAEs, Grade ≥3” value (Part A, 20-600 mg QD (N = 16)) was 0 n (%). The “Nausea, TEAEs, All grades” value (Part A, 20-600 mg QD (N = 16)) was 6 (37.5) n (%), the “Nausea, TEAEs, Grade 1” value (Part A, 20-600 mg QD (N = 16)) was 3 (18.8) n (%) and the “Nausea, TEAEs, Grade 2” value (Part A, 20-600 mg QD (N = 16)) was 3 (18.8) n (%). The “Nausea, TEAEs, Grade ≥3” value (Part A, 20-600 mg QD (N = 16)) was 0 n (%), the “Nausea, Treatment-related TEAEs, All Grades” value (Part A, 20-600 mg QD (N = 16)) was 4 (25.0) n (%) and the “Nausea, Treatment-related TEAEs, Grade 1” value (Part A, 20-600 mg QD (N = 16)) was 3 (18.8) n (%). The “Nausea, Treatment-related TEAEs, Grade 2” value (Part A, 20-600 mg QD (N = 16)) was 1 (6.3) n (%), the “Nausea, Treatment-related TEAEs, Grade ≥3” value (Part A, 20-600 mg QD (N = 16)) was 0 n (%) and the “Night sweat, TEAEs, All grades” value (Part A, 20-600 mg QD (N = 16)) was 3 (18.8) n (%). The “Night sweat, TEAEs, Grade 1” value (Part A, 20-600 mg QD (N = 16)) was 3 (18.8) n (%), the “Night sweat, TEAEs, Grade 2” value (Part A, 20-600 mg QD (N = 16)) was 0 n (%) and the “Night sweat, TEAEs, Grade ≥3” value (Part A, 20-600 mg QD (N = 16)) was 0 n (%). The “Night sweat, Treatment-related TEAEs, All Grades” value (Part A, 20-600 mg QD (N = 16)) was 3 (18.8) n (%), the “Night sweat, Treatment-related TEAEs, Grade 1” value (Part A, 20-600 mg QD (N = 16)) was 3 (18.8) n (%) and the “Night sweat, Treatment-related TEAEs, Grade 2” value (Part A, 20-600 mg QD (N = 16)) was 0 n (%). For the same compound, the “Night sweat, Treatment-related TEAEs, Grade ≥3” value (Part A, 20-600 mg QD (N = 16)) was 0 n (%), the “Urinary tract infection, TEAEs, All grades” value (Part A, 20-600 mg QD (N = 16)) was 4 (25.0) n (%) and the “Urinary tract infection, TEAEs, Grade 1” value (Part A, 20-600 mg QD (N = 16)) was 0 n (%). The “Urinary tract infection, TEAEs, Grade 2” value (Part A, 20-600 mg QD (N = 16)) was 3 (18.8) n (%), the “Urinary tract infection, TEAEs, Grade ≥3” value (Part A, 20-600 mg QD (N = 16)) was 1 (6.3) n (%) and the “Urinary tract infection, Treatment-related TEAEs, All Grades” value (Part A, 20-600 mg QD (N = 16)) was 0 n (%). For the same compound, the “Urinary tract infection, Treatment-related TEAEs, Grade 1” value (Part A, 20-600 mg QD (N = 16)) was 0 n (%), the “Urinary tract infection, Treatment-related TEAEs, Grade 2” value (Part A, 20-600 mg QD (N = 16)) was 0 n (%) and the “Urinary tract infection, Treatment-related TEAEs, Grade ≥3” value (Part A, 20-600 mg QD (N = 16)) was 0 n (%). The “cardiac non-treatment-related TEAEs” value (Part A, Grade 1 palpitations and Grade 2 prolonged QT interval) was 2 patients, the “eye disorder treatment-related TEAE” value (Part A, Grade 1 photophobia) was 1 patient and the “serious TEAEs” value (Part A, associated with disease progression, considered unrelated to amcenestrant) was “three patients”. For the same compound, the “TEAE leading to treatment discontinuation” value (Part B) was “one Grade ≥3 TEAE of pneumonia led to treatment discontinuation”, the “eye disorder non-treatment-related TEAEs” value (Part B) was “Three eye disorder non-treatment-related TEAEs were reported in two patients” and the “serious TEAEs related to amcenestrant” value (Part B / overall, by investigator) was “none were considered related to amcenestrant; also recorded: No serious AEs were considered treatment-related”. For the same compound, the “ALT increased, TEAEs, All grades” value (Part B, 400 mg QD (N = 49)) was 3 (6.1) n (%), the “ALT increased, TEAEs, Grade 1” value (Part B, 400 mg QD (N = 49)) was 0 n (%) and the “ALT increased, TEAEs, Grade 2” value (Part B, 400 mg QD (N = 49)) was 0 n (%). The “ALT increased, TEAEs, Grade ≥3” value (Part B, 400 mg QD (N = 49)) was 3 (6.1) n (%), the “ALT increased, Treatment-related TEAEs, All Grades” value (Part B, 400 mg QD (N = 49)) was 0 n (%) and the “ALT increased, Treatment-related TEAEs, Grade 1” value (Part B, 400 mg QD (N = 49)) was 0 n (%). For the same compound, the “ALT increased, Treatment-related TEAEs, Grade 2” value (Part B, 400 mg QD (N = 49)) was 0 n (%), the “ALT increased, Treatment-related TEAEs, Grade ≥3” value (Part B, 400 mg QD (N = 49)) was 0 n (%) and the “AST increased, TEAEs, All grades” value (Part B, 400 mg QD (N = 49)) was 3 (6.1) n (%). The “AST increased, TEAEs, Grade 1” value (Part B, 400 mg QD (N = 49)) was 0 n (%), the “AST increased, TEAEs, Grade 2” value (Part B, 400 mg QD (N = 49)) was 0 n (%) and the “AST increased, TEAEs, Grade ≥3” value (Part B, 400 mg QD (N = 49)) was 3 (6.1) n (%). For the same compound, the “AST increased, Treatment-related TEAEs, All Grades” value (Part B, 400 mg QD (N = 49)) was 0 n (%), the “AST increased, Treatment-related TEAEs, Grade 1” value (Part B, 400 mg QD (N = 49)) was 0 n (%) and the “AST increased, Treatment-related TEAEs, Grade 2” value (Part B, 400 mg QD (N = 49)) was 0 n (%). The “AST increased, Treatment-related TEAEs, Grade ≥3” value (Part B, 400 mg QD (N = 49)) was 0 n (%), the “Abdominal pain upper, TEAEs, All grades” value (Part B, 400 mg QD (N = 49)) was 6 (12.2) n (%) and the “Abdominal pain upper, TEAEs, Grade 1” value (Part B, 400 mg QD (N = 49)) was 2 (4.1) n (%). For the same compound, the “Abdominal pain upper, TEAEs, Grade 2” value (Part B, 400 mg QD (N = 49)) was 4 (8.2) n (%), the “Abdominal pain upper, TEAEs, Grade ≥3” value (Part B, 400 mg QD (N = 49)) was 0 n (%) and the “Abdominal pain upper, Treatment-related TEAEs, All Grades” value (Part B, 400 mg QD (N = 49)) was 1 (2.0) n (%). For the same compound, the “Abdominal pain upper, Treatment-related TEAEs, Grade 1” value (Part B, 400 mg QD (N = 49)) was 1 (2.0) n (%), the “Abdominal pain upper, Treatment-related TEAEs, Grade 2” value (Part B, 400 mg QD (N = 49)) was 0 n (%) and the “Abdominal pain upper, Treatment-related TEAEs, Grade ≥3” value (Part B, 400 mg QD (N = 49)) was 0 n (%). The “Abdominal pain, TEAEs, All grades” value (Part B, 400 mg QD (N = 49)) was 11 (22.4) n (%), the “Abdominal pain, TEAEs, Grade 1” value (Part B, 400 mg QD (N = 49)) was 8 (16.3) n (%) and the “Abdominal pain, TEAEs, Grade 2” value (Part B, 400 mg QD (N = 49)) was 3 (6.1) n (%). The “Abdominal pain, TEAEs, Grade ≥3” value (Part B, 400 mg QD (N = 49)) was 0 n (%), the “Abdominal pain, Treatment-related TEAEs, All Grades” value (Part B, 400 mg QD (N = 49)) was 2 (4.1) n (%) and the “Abdominal pain, Treatment-related TEAEs, Grade 1” value (Part B, 400 mg QD (N = 49)) was 2 (4.1) n (%). For the same compound, the “Abdominal pain, Treatment-related TEAEs, Grade 2” value (Part B, 400 mg QD (N = 49)) was 0 n (%), the “Abdominal pain, Treatment-related TEAEs, Grade ≥3” value (Part B, 400 mg QD (N = 49)) was 0 n (%) and the “Any TEAE, TEAEs, All grades” value (Part B, 400 mg QD (N = 49)) was 49 (100) n (%). For the same compound, the “Any TEAE, TEAEs, Grade 1” value (Part B, 400 mg QD (N = 49)) was 11 (22.4) n (%), the “Any TEAE, TEAEs, Grade 2” value (Part B, 400 mg QD (N = 49)) was 22 (44.9) n (%) and the “Any TEAE, TEAEs, Grade ≥3” value (Part B, 400 mg QD (N = 49)) was 16 (32.7) n (%). For the same compound, the “Any TEAE, Treatment-related TEAEs, All Grades” value (Part B, 400 mg QD (N = 49)) was 26 (53.1) n (%), the “Any TEAE, Treatment-related TEAEs, Grade 1” value (Part B, 400 mg QD (N = 49)) was 21 (42.9) n (%) and the “Any TEAE, Treatment-related TEAEs, Grade 2” value (Part B, 400 mg QD (N = 49)) was 5 (10.2) n (%). For the same compound, the “Any TEAE, Treatment-related TEAEs, Grade ≥3” value (Part B, 400 mg QD (N = 49)) was 0 n (%), the “Arthralgia, TEAEs, All grades” value (Part B, 400 mg QD (N = 49)) was 10 (20.4) n (%) and the “Arthralgia, TEAEs, Grade 1” value (Part B, 400 mg QD (N = 49)) was 7 (14.3) n (%). The “Arthralgia, TEAEs, Grade 2” value (Part B, 400 mg QD (N = 49)) was 3 (6.1) n (%), the “Arthralgia, TEAEs, Grade ≥3” value (Part B, 400 mg QD (N = 49)) was 0 n (%) and the “Arthralgia, Treatment-related TEAEs, All Grades” value (Part B, 400 mg QD (N = 49)) was 4 (8.2) n (%). The “Arthralgia, Treatment-related TEAEs, Grade 1” value (Part B, 400 mg QD (N = 49)) was 3 (6.1) n (%), the “Arthralgia, Treatment-related TEAEs, Grade 2” value (Part B, 400 mg QD (N = 49)) was 1 (2.0) n (%) and the “Arthralgia, Treatment-related TEAEs, Grade ≥3” value (Part B, 400 mg QD (N = 49)) was 0 n (%). The “Asthenia, TEAEs, All grades” value (Part B, 400 mg QD (N = 49)) was 10 (20.4) n (%), the “Asthenia, TEAEs, Grade 1” value (Part B, 400 mg QD (N = 49)) was 7 (14.3) n (%) and the “Asthenia, TEAEs, Grade 2” value (Part B, 400 mg QD (N = 49)) was 3 (6.1) n (%). The “Asthenia, TEAEs, Grade ≥3” value (Part B, 400 mg QD (N = 49)) was 0 n (%), the “Asthenia, Treatment-related TEAEs, All Grades” value (Part B, 400 mg QD (N = 49)) was 2 (4.1) n (%) and the “Asthenia, Treatment-related TEAEs, Grade 1” value (Part B, 400 mg QD (N = 49)) was 2 (4.1) n (%). For the same compound, the “Asthenia, Treatment-related TEAEs, Grade 2” value (Part B, 400 mg QD (N = 49)) was 0 n (%) and the “Asthenia, Treatment-related TEAEs, Grade ≥3” value (Part B, 400 mg QD (N = 49)) was 0 n (%).
